Source: patent US9833497B2, “Human originated EGF domain proteins and use of the same” (CHENGDU SOURCEBIO LIMITED-LIABILITY COMPANY, priority 2013, dated 2017)

Columns and labels:
Assay type in all cases: cell-based
Aeromonas hydrophila = assay: MIC against Gram-negative bacteria: Aeromonas hydrophila; details: 5×10^5 CFU/mL
In short: (§1)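 Broth microdilution, LB medium, final inoculum 5×10^5 CFU/mL from McFarland 0.5 cultures. Recombinant human EGF domain proteins tested in two-fold steps, n=3. MIC: lowest concentration, no growth.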

E. coli DH5α = assay: Antibacterial activity: MIC and growth curve against E. coli DH5α in 96-well plate; details: minimal inhibitory concentration against E. coli DH5α; 96-well plate, 5×10^5 CFU/mL, 37° C., judged after 8 h
In short: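 MIC taken as lowest protein level with no bacterial growth, tracked by A600 every 30 min during 37 °C, 175 rpm culture. Two-fold protein series 50-12.5 μg/mL final, triplicate wells, against 5×10^5 CFU/mL of LB-washed mid-log cells.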

Moraxella catarrhalis = assay: MIC against Gram-negative bacteria: Moraxella catarrhalis; details: 5×10^5 CFU/mL
In short: as §1

Pseudomonas aeruginosa = assay: MIC against Gram-negative bacteria: Pseudomonas aeruginosa; details: 5×10^5 CFU/mL
In short: as §1

Proteus mirabilis = assay: MIC against Gram-negative bacteria: Proteus mirabilis; details: 5×10^5 CFU/mL
In short: as §1

Serratia marcescens = assay: MIC against Gram-negative bacteria: Serratia marcescens; details: 5×10^5 CFU/mL
In short: as §1

Klebsiella pneumonia = assay: MIC against Gram-negative bacteria: Klebsiella pneumonia; details: 5×10^5 CFU/mL
In short: as §1

Proteus vulgaris = assay: MIC against Gram-negative bacteria: Proteus vulgaris; details: 5×10^5 CFU/mL
In short: as §1

Citrobacter diversus = assay: MIC against Gram-negative bacteria: Citrobacter diversus; details: 5×10^5 CFU/mL
In short: as §1

Enterobacter cloacae = assay: MIC against Gram-negative bacteria: Enterobacter cloacae; details: 5×10^5 CFU/mL
In short: as §1

E. coli BL21 = assay: MIC against Gram-negative bacteria: E. coli BL21; details: 5×10^5 CFU/mL
In short: as §1

[1] = Aeromonas hydrophila, 96-well plate, 37° C., 10 h
[2] = Moraxella catarrhalis, 96-well plate, 37° C., 10 h
[3] = Pseudomonas aeruginosa, 96-well plate, 37° C., 10 h
[4] = Proteus mirabilis, 96-well plate, 37° C., 10 h
[5] = Serratia marcescens, 96-well plate, 37° C., 10 h
[6] = Klebsiella pneumonia, 96-well plate, 37° C., 10 h
[7] = Proteus vulgaris, 96-well plate, 37° C., 10 h
[8] = Citrobacter diversus, 96-well plate, 37° C., 10 h
[9] = Enterobacter cloacae, 96-well plate, 37° C., 10 h
[10] = E. coli BL21, 96-well plate, 37° C., 10 h

PRT1272 (DVDECVEGTDNCHIDAICQNTPRSYKCICKSGYTGDGKHCK; listed as Homo sapiens)
MIC against A. hydrophila (Aeromonas hydrophila; [1]): 12.5 µg/mL | MIC (E. coli DH5α): 25 µg/mL | MIC against M. catarrhalis (Moraxella catarrhalis; [2]): 12.5 µg/mL | MIC against P. aeruginosa (Pseudomonas aeruginosa; [3]): 100 µg/mL | MIC against P. mirabilis (Proteus mirabilis; [4]): 50 µg/mL | MIC against S. marcescens (Serratia marcescens; [5]): 50 µg/mL | MIC against K. pneumonia (Klebsiella pneumonia; [6]): 50 µg/mL | MIC against P. vulgaris (Proteus vulgaris; [7]): 12.5 µg/mL | MIC against C. diversus (Citrobacter diversus; [8]): 50 µg/mL | MIC against E. cloacae (Enterobacter cloacae; [9]): 25 µg/mL | MIC against E. coli BL21 (E. coli BL21; [10]): 50 µg/mL

PRT1310 (EINSCLIHHGGCHIHAECIPTGPQQVSCSCREGYSGDGIRTCE; listed as Homo sapiens)
MIC against A. hydrophila (Aeromonas hydrophila; [1]): 12.5 µg/mL | MIC (E. coli DH5α): 12.5 µg/mL | MIC against M. catarrhalis (Moraxella catarrhalis; [2]): 50 µg/mL | MIC against P. aeruginosa (Pseudomonas aeruginosa; [3]): 12.5 µg/mL | MIC against P. mirabilis (Proteus mirabilis; [4]): 25 µg/mL | MIC against S. marcescens (Serratia marcescens; [5]): 25 µg/mL | MIC against K. pneumonia (Klebsiella pneumonia; [6]): 25 µg/mL | MIC against P. vulgaris (Proteus vulgaris; [7]): 12.5 µg/mL | MIC against C. diversus (Citrobacter diversus; [8]): 25 µg/mL | MIC against E. cloacae (Enterobacter cloacae; [9]): 50 µg/mL | MIC against E. coli BL21 (E. coli BL21; [10]): 50 µg/mL

PRT59 (PCTVGDASACLTCAPDNRTRCGTCNTGYMLSQGLCK; listed as Homo sapiens)
MIC (μg/mL) A. hydrophila (Aeromonas hydrophila; [1]): 12.5 µg/mL | MIC (E. coli DH5α): 25 µg/mL | MIC (μg/mL) M. catarrhalis (Moraxella catarrhalis; [2]): 12.5 µg/mL | MIC (μg/mL) P. aeruginosa (Pseudomonas aeruginosa; [3]): 25 µg/mL | MIC (μg/mL) P. mirabilis (Proteus mirabilis; [4]): 25 µg/mL | MIC (μg/mL) S. marcescens (Serratia marcescens; [5]): 12.5 µg/mL | MIC (μg/mL) K. pneumonia (Klebsiella pneumonia; [6]): 50 µg/mL | MIC (μg/mL) P. vulgaris (Proteus vulgaris; [7]): 12.5 µg/mL | MIC (μg/mL) C. diversus (Citrobacter diversus; [8]): 25 µg/mL | MIC (μg/mL) E. cloacae (Enterobacter cloacae; [9]): 25 µg/mL | MIC (μg/mL) E. coli BL21 (E. coli BL21; [10]): 12.5 µg/mL

PRT1232 (IGQQCPNMCSGHGSCDHGICRCDQGYQGTECH; listed as Homo sapiens)
MIC against A. hydrophila (Aeromonas hydrophila; [1]): 50 µg/mL | MIC (E. coli DH5α): 50 µg/mL | MIC against M. catarrhalis (Moraxella catarrhalis; [2]): 12.5 µg/mL | MIC against P. aeruginosa (Pseudomonas aeruginosa; [3]): 25 µg/mL | MIC against P. mirabilis (Proteus mirabilis; [4]): 25 µg/mL | MIC against S. marcescens (Serratia marcescens; [5]): 25 µg/mL | MIC against K. pneumonia (Klebsiella pneumonia; [6]): 12.5 µg/mL | MIC against P. vulgaris (Proteus vulgaris; [7]): 50 µg/mL | MIC against C. diversus (Citrobacter diversus; [8]): 25 µg/mL | MIC against E. cloacae (Enterobacter cloacae; [9]): 25 µg/mL | MIC against E. coli BL21 (E. coli BL21; [10]): 25 µg/mL

PRT873 (CECYGHSNRCSYIDFLNVVTCVSCKHNTRGQHCQHCRLGYYRNGSAELDDENVCIE; listed as Homo sapiens)
MIC (μg/mL) A. hydrophila (Aeromonas hydrophila; A. hydrophila, 10 h cultivation at 37° C.): 50 µg/mL | MIC (E. coli DH5α): 12.5 µg/mL | MIC (μg/mL) M. catarrhalis (Moraxella catarrhalis; M. catarrhalis, 10 h cultivation at 37° C.): 12.5 µg/mL | MIC (μg/mL) P. aeruginosa (Pseudomonas aeruginosa; P. aeruginosa, 10 h cultivation at 37° C.): 12.5 µg/mL | MIC (μg/mL) P. mirabilis (Proteus mirabilis; P. mirabilis, 10 h cultivation at 37° C.): 25 µg/mL | MIC (μg/mL) S. marcescens (Serratia marcescens; S. marcescens, 10 h cultivation at 37° C.): 12.5 µg/mL | MIC (μg/mL) K. pneumonia (Klebsiella pneumonia; K. pneumonia, 10 h cultivation at 37° C.): 25 µg/mL | MIC (μg/mL) P. vulgaris (Proteus vulgaris; P. vulgaris, 10 h cultivation at 37° C.): 50 µg/mL | MIC (μg/mL) C. diversus (Citrobacter diversus; C. diversus, 10 h cultivation at 37° C.): 25 µg/mL | MIC (μg/mL) E. cloacae (Enterobacter cloacae; E. cloacae, 10 h cultivation at 37° C.): 25 µg/mL | MIC (μg/mL) E. coli BL21 (E. coli BL21; E. coli BL21, 10 h cultivation at 37° C.): 50 µg/mL

PRT126 (IIDRCVPNHCEHGGKCSQTWDSFKCTCDETGYSGATCH; listed as Homo sapiens)
MIC (μg/mL) A. hydrophila (Aeromonas hydrophila; [1]): 12.5 µg/mL | MIC (E. coli DH5α): 12.5 µg/mL | MIC (μg/mL) M. catarrhalis (Moraxella catarrhalis; [2]): 100 µg/mL | MIC (μg/mL) P. aeruginosa (Pseudomonas aeruginosa; [3]): 12.5 µg/mL | MIC (μg/mL) P. mirabilis (Proteus mirabilis; [4]): 25 µg/mL | MIC (μg/mL) S. marcescens (Serratia marcescens; [5]): 25 µg/mL | MIC (μg/mL) K. pneumonia (Klebsiella pneumonia; [6]): 50 µg/mL | MIC (μg/mL) P. vulgaris (Proteus vulgaris; [7]): 12.5 µg/mL | MIC (μg/mL) C. diversus (Citrobacter diversus; [8]): 12.5 µg/mL | MIC (μg/mL) E. cloacae (Enterobacter cloacae; [9]): 12.5 µg/mL | MIC (μg/mL) E. coli BL21 (E. coli BL21; [10]): 50 µg/mL

PRT461 (DVDECAWDAHLCREGQRCVNLLGSYRCLPDCGPGFRVADGAGCE; listed as Homo sapiens)
MIC against A. hydrophila (Aeromonas hydrophila; 96-well plate, 37° C., 10 h): 12.5 µg/mL | MIC (E. coli DH5α): 50 µg/mL | MIC against M. catarrhalis (Moraxella catarrhalis; 96-well plate, 37° C., 10 h): 25 µg/mL | MIC against P. aeruginosa (Pseudomonas aeruginosa; 96-well plate, 37° C., 10 h): 50 µg/mL | MIC against P. mirabilis (Proteus mirabilis; 96-well plate, 37° C., 10 h): 12.5 µg/mL | MIC against S. marcescens (Serratia marcescens; 96-well plate, 37° C., 10 h): 12.5 µg/mL | MIC against K. pneumonia (Klebsiella pneumonia; 96-well plate, 37° C., 10 h): 12.5 µg/mL | MIC against P. vulgaris (Proteus vulgaris; 96-well plate, 37° C., 10 h): 25 µg/mL | MIC against C. diversus (Citrobacter diversus; 96-well plate, 37° C., 10 h): 50 µg/mL | MIC against E. cloacae (Enterobacter cloacae; 96-well plate, 37° C., 10 h): 50 µg/mL | MIC against E. coli BL21 (E. coli BL21; 96-well plate, 37° C., 10 h): 12.5 µg/mL
